The experiment has as its target T1, RORγ (Homo sapiens, UniProt P51449).
T1 construct: expressed in transfected cells; host or cells: 293FT cells (Invitrogen), expression vector pFN26A (Promega)
T1 sequence (P51449 269-508 limits assumed): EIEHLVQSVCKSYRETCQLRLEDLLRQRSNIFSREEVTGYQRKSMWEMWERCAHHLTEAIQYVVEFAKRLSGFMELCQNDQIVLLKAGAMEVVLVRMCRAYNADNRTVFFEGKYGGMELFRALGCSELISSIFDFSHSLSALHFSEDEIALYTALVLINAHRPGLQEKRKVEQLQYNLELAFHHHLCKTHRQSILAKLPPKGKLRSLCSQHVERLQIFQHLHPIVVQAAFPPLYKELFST
Briefly: RORγ GAL4 reporter gene assay. In kind it is cell-based. Particulars: inhibition of RORγ activity, GAL4-RORγ-LBD luciferase reporter in 293FT cells, overnight incubation; read-out: mean pIC50 (converted). As to the method: Example inhibitors 1-166 were tested for their ability to inhibit RORγ activity in a RORγ GAL4 reporter gene assay. The assay procedure and results are described below.
RORγ GAL4 Reporter Gene Assay Description
A GAL4 one-hybrid reporter system employing luciferase readout was established to determine inhibition of RORγ in 293FT cells. The RORγ ligand-binding domain (LBD) was fused to the yeast GAL4 DNA binding domain (DBD) and placed under the control of the human cytomegalovirus (CMV) immediate early promoter, using expression vector pFN26A (Promega) and standard recombinant DNA cloning methods. To serve as a control in the assay, a similar vector was generated in which the GAL4-DBD was fused to Herpes simplex virus protein 16 (VP16), a constitutive transcriptional activator.
To monitor the inhibitory effect of compounds on RORγ, a transcriptional reporter construct was used. The pGL4.35 vector (Promega) contains nine copies of the GAL4 Upstream Activator Sequence (UAS). This sequence drives the transcription of the luciferase reporter gene luc2P in response to binding of a fusion protein containing the GAL4 DNA binding domain, as for example expressed by the GAL4-RORγ-LBD and GAL4-VP16 expression vectors described above. To allow a GAL4 fusion protein to drive the expression of the luciferase reporter, the pGL4.35 expression vector and the appropriate GAL4 fusion protein expression vector were bulk transfected in the 293FT cells using standard transfection techniques.
The day after transfection, cells were plated into 96 well plates, test compound was added and the plates were incubated overnight. Subsequently, the firefly luciferase activity was quantified using luciferase detection reagent and luminescence readout.
Detailed Assay Description
293FT cells (Invitrogen) were transfected with a GAL4 fusion protein expression vector (as described above) and the transcriptional reporter construct (pGL4.35, Promega). 60 μL of TransIT-293 transfection reagent (Mirus Bio) was added drop wise to 1500 μl Opti-MEM I Reduced Serum Medium (Invitrogen) and incubated at room temperature (RT) for 5 to 20 minutes. 1500 μL of this reagent mixture was added to 5 μg of GAL4 fusion protein expression vector and 5 μg of the transcriptional reporter construct, and incubated at RT for 20 minutes.
To harvest 293FT cells from a T75 flask, first the culture medium was taken off the cells. Subsequently, the cells were washed with Phosphate Buffered Saline (PBS) (Lonza), after which the PBS was removed. To dissociate the cells, 1 ml of TrypLE Express (Invitrogen) was added to the flask, followed by incubation at RT until the cells visually started to detach. Cells were collected in 5 mL of assay medium (DMEM culture medium (Lonza), 10% dialyzed FBS (Invitrogen) and Pen/Strep (Lonza)) to achieve a single cell suspension. 10×10^6 cells were spun down and re-suspended in 10 mL of assay medium. Subsequently, the cell suspension was added to the transfection mix tube, and then transferred as a whole to a T75 flask (Greiner), followed by overnight (16-24 hours) incubation at 37° C. and 5% CO2.
For compound screening, the cells were harvested (as described above) and counted. 13×10^6 cells were spun down, the supernatant was aspirated and the cells were re-suspended in 17.3 mL of assay medium obtaining a cell suspension of 0.75×10^6 cells/mL. 80 μL of cell suspension (60,000 cells) was plated per well into a white, flat bottom, tissue culture treated, 96 well screening plates (Greiner).
Test compounds were diluted, starting from a 10 mM dimethylsulfoxide (DMSO) stock solution, to serial dilutions in DMSO at 500× the final test concentration. Subsequently, these solutions were diluted to 5× the final test concentration in two 10-fold-dilution steps in assay medium. The final DMSO concentration of the 5× test compound solution was 1%. […]
A general note: In a reporter assay the amount or activity of a reporter protein is the signal.
As to `CCN(C(=O)c1ccc(NC(=O)Cc2ccc(S(=O)(=O)NC3CC3)cc2)cc1Cl)c1ccccc1` [Example 112, 2-chloro-4-{2-[4-(cyclopropylsulfamoyl)phenyl]acetamido}-N-ethyl-N-phenylbenzamide], the IC50 was not above 1000 nM.
As for `CN(C(=O)c1ccc(NC(=O)Cc2ccc(S(=O)(=O)CC3CC3)cc2)cc1)C1CCCCC1` [Example 34, N-cyclohexyl-4-[2-(4-cyclopropylmethanesulfonylphenyl)acetamido]-N-methylbenzamide], the IC50 is not above 1000 nM.
Consider `CC(C)[C@@H](NC(=O)c1ccc(NC(=O)Cc2ccc(S(=O)(=O)CC3CC3)cc2)cc1)C(F)(F)F` [Example 69, 4-[2-(4-cyclopropylmethanesulfonylphenyl)acetamido]-N-[(2R)-1,1,1-trifluoro-3-methylbutan-2-yl]benzamide], for which the IC50 was not above 1000 nM.
The figure for `CCN(C(=O)c1ccc(NC(=O)Cc2ccc(S(=O)(=O)NC3CC3)cc2)cc1)c1nnc(C)s1` [Example 97, 4-{2-[4-(cyclopropylsulfamoyl)phenyl]acetamido}-N-ethyl-N-(5-methyl-1,3,4-thiadiazol-2-yl)benzamide] is not above 1000 nM; for `O=C(Cc1ccc(S(=O)(=O)NC2CC2)cc1)Nc1ccc(C(=O)N(CC(F)(F)F)c2ccccc2)cc1` [Example 109, 4-{2-[4-(cyclopropylsulfamoyl)phenyl]acetamido}-N-phenyl-N-(2,2,2-trifluoroethyl) benzamide] it is not above 10 nM.
The figure for `CCN(C(=O)c1ccc(NC(=O)Cc2ccc(S(=O)(=O)CC3CC3)cc2)cc1Cl)c1cccc(C)c1C` [Example 120, 2-chloro-4-[2-(4-cyclopropylmethanesulfonylphenyl)acetamido]-N-(2,3-dimethylphenyl)-N-ethylbenzamide] is not above 100 nM; for `CC(C)(C)N(C(=O)c1ccc(NC(=O)Cc2ccc(S(=O)(=O)CC3CC3)cc2)c(F)c1)c1ccccc1` [Example 134, N-tert-butyl-4-[2-(4-cyclopropylmethanesulfonylphenyl)acetamido]-3-fluoro-N-phenylbenzamide] it is not above 10 nM; for `CCN(C(=O)c1ccc(NC(=O)Cc2ccc(S(=O)(=O)NC3CC3)cc2)nc1)c1ccccc1` [Example 54, 6-{2-[4-(cyclopropylsulfamoyl)phenyl]acetamido}-N-ethyl-N-phenylpyridine-3-carboxamide] it is not above 1000 nM.
For `CN(C(=O)c1ccc(NC(=O)Cc2ccc(S(=O)(=O)CC3CC3)cc2)cc1)c1ccccc1` [Example 3, 4-[2-(4-cyclopropylmethanesulfonylphenyl)acetamido]-N-methyl-N-phenylbenzamide], the IC50 is not above 10 nM.
As for `CCN(C(=O)c1ccc(NC(=O)Cc2ccc(S(=O)(=O)CC3CC3)cc2)cc1)c1nc(C)c(C)s1` [Example 64, 4-[2-(4-cyclopropylmethanesulfonylphenyl)acetamido]-N-(4-methyl-5-methyl-1,3-thiazol-2-yl)-N-ethylbenzamide], the figure is not above 10 nM; as for `CN(CCc1ccccc1)C(=O)c1ccc(NC(=O)Cc2ccc(S(=O)(=O)CC3CC3)cc2)cc1` [Example 10, 4-[2-(4-cyclopropylmethanesulfonylphenyl)acetamido]-N-methyl-N-(2-phenylethyl)benzamide], not above 100 nM.
As for `CCN(C(=O)c1ccc(NC(=O)Cc2ccc(S(=O)(=O)CC3CC3)cc2)c(OC)c1)c1ccccc1` [Example 101, 4-[2-(4-cyclopropylmethanesulfonylphenyl)acetamido]-N-ethyl-3-methoxy-N-phenylbenzamide], the figure is not above 1000 nM; as for `CCN(C(=O)c1ccc(NC(=O)Cc2ccc(S(=O)(=O)CC3CC3)cc2)c(F)c1)c1ccccc1` [Example 102, 4-[2-(4-cyclopropylmethanesulfonylphenyl)acetamido]-N-ethyl-3-fluoro-N-phenylbenzamide], not above 10 nM; as for `CCN(C(=O)c1ccc(NC(=O)Cc2ccc(S(=O)(=O)NC3CC3)cc2)cc1)c1cccc(C)c1` [Example 46, 4-{2-[4-(cyclopropylsulfamoyl)phenyl]acetamido}-N-ethyl-N-(3-methylphenyl) benzamide], not above 10 nM.
As for `CCN(C(=O)c1ccc(NC(=O)Cc2ccc(S(=O)(=O)CC3CC3)cc2)cc1Cl)c1ccccc1Cl` [Example 128, 2-chloro-N-(2-chlorophenyl)-4-[2-(4-cyclopropylmethanesulfonylphenyl)acetamido]-N-ethylbenzamide], the figure is not above 10 nM.
As to `Cc1ccccc1N(C)C(=O)c1ccc(NC(=O)Cc2ccc(S(=O)(=O)CC3CC3)cc2)cc1Cl` [Example 117, 2-chloro-4-[2-(4-cyclopropylmethanesulfonylphenyl)acetamido]-N-methyl-N-(2-methylphenyl)benzamide], the IC50 is not above 10 nM.
As for `CC(C)(CN1CCOCC1)NC(=O)c1ccc(NC(=O)Cc2ccc(S(=O)(=O)CC3CC3)cc2)cc1` [Example 60, 4-[2-(4-cyclopropylmethanesulfonylphenyl)acetamido]-N-[2-methyl-1-(morpholin-4-yl)propan-2-yl]benzamide], the figure is not above 1000 nM.
Regarding `N#CC(NC(=O)c1ccc(NC(=O)Cc2ccc(S(=O)(=O)CC3CC3)cc2)cc1)c1ccccc1` (stereo not shown) [Example 73, N-[cyano(phenyl)methyl]-4-[2-(4-cyclopropylmethanesulfonylphenyl)acetamido]benzamide], the IC50 is not above 1000 nM.
As for `Cc1cc(N(C)C(=O)c2ccc(NC(=O)Cc3ccc(S(=O)(=O)NC4CC4)cc3)cc2)no1` [Example 91, 4-{2-[4-(cyclopropylsulfamoyl)phenyl]acetamido}-N-methyl-N-(5-methyl-1,2-oxazol-3-yl)benzamide], the figure is not above 1000 nM.
As for `O=C(Cc1ccc(S(=O)(=O)CC2CC2)cc1)Nc1ccc(C(=O)N2CCc3ccccc32)cc1` [Example 41, 2-(4-cyclopropylmethanesulfonylphenyl)-N-[4-(2,3-dihydro-1H-indole-1-carbonyl)phenyl]acetamide], the figure is not above 1000 nM; as for `CCOC(=O)C1CCCN(C(=O)c2ccc(NC(=O)Cc3ccc(S(=O)(=O)CC4CC4)cc3)cc2)C1` (stereo not shown) [Example 25, ethyl 1-{4-[2-(4-cyclopropylmethanesulfonylphenyl)acetamido]benzoyl}piperidine-3-carboxylate], not above 1000 nM.
As for `O=C(Cc1ccc(S(=O)(=O)CC2CC2)cc1)Nc1ccc(C(=O)N(c2ccccc2)C2CC(F)(F)C2)cc1` [Example 144, 4-[2-(4-cyclopropylmethanesulfonylphenyl)acetamido]-N-(3,3-difluorocyclobutyl)-N-phenylbenzamide], the figure is not above 10 nM; as for `O=C(Cc1ccc(S(=O)(=O)CC2CC2)cc1)Nc1ccc(C(=O)N(c2ccccn2)C2CCOC2)cc1` (stereo not shown) [Example 136, 4-[2-(4-cyclopropylmethanesulfonylphenyl)acetamido]-N-(oxolan-3-yl)-N-(pyridin-2-yl)benzamide], not above 100 nM.
For `CCCCN(C(=O)c1ccc(NC(=O)Cc2ccc(S(=O)(=O)CC3CC3)cc2)cc1)c1nccs1` [Example 82, N-butyl-4-[2-(4-cyclopropylmethanesulfonylphenyl)acetamido]-N-(1,3-thiazol-2-yl)benzamide], the IC50 was not above 100 nM.
The figure for `CC(C)(NC(=O)c1ccc(NC(=O)Cc2ccc(S(=O)(=O)CC3CC3)cc2)cc1)c1cccnc1` [Example 68, 4-[2-(4-cyclopropylmethanesulfonylphenyl)acetamido]-N-[2-(pyridin-3-yl)propan-2-yl]benzamide] is not above 1000 nM.

(Values after US10315996B2, “ROR gamma (RORγ) modulators” (LEAD PHARMA HOLDING B.V., priority 2015, dated 2019).)
